Data taken from patent US7317038B2, “Nerve regeneration promoters containing semaphorin inhibitor as the active ingredient” (Dainippon Sumitomo Pharma Co., Ltd., priority 2000, dated 2008).
“Also recorded” adds a separate entry of the source.

Columns and labels:
[1] = molecular target: T1, mouse semaphorin 3A (Sema3A) (Mus musculus, UniProt O08665); experiment: Suppression of growth cone collapse activity of Sema3A (chick embryo dorsal root ganglions); type: cell-based; conditions: for inhibition of growth cone collapse activity of Sema3A (in words): chick embryo dorsal root ganglions; for IC50: E7 chick embryo dorsal root ganglions, 2 units/ml Sema3A added 1 hour after compound, concentration where collapse rate = (A+B)/2, read-out: IC50 of inhibition of the growth cone collapse activity of Sema3A (converted)
T1 sequence (O08665 21-772): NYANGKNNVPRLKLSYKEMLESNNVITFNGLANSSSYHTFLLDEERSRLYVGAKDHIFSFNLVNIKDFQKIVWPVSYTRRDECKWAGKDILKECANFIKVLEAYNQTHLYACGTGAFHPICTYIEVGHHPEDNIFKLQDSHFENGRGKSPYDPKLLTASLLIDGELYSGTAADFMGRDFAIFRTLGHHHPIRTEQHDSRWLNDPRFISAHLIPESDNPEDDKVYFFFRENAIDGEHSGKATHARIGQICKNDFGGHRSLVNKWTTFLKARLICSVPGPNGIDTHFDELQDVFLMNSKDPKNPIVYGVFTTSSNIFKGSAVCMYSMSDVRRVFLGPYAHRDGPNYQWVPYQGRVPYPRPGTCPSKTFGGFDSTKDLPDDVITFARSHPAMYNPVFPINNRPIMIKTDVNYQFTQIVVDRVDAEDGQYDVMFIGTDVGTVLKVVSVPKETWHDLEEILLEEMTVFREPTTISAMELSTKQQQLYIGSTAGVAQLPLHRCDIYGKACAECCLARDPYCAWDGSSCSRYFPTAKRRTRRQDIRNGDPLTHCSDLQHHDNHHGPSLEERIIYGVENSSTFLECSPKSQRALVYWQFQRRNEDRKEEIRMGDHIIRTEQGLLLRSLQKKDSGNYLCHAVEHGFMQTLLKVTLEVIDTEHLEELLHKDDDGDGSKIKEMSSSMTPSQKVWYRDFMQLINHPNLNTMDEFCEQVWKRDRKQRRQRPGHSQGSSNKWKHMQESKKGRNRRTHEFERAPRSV
Method: A 96-well plate (Sumitomo Bakelite Co., ltd. ) pre-coated with polylysine was further coated with laminine (20 μg/ml of laminine, for 1 hour at room temperature). Each well was added with 100 μl of medium (F12 medium containing 10% bovine fetal serum, 20 ng/ml of NGF, 100 units/ml of penicillin and 100 μg/ml of streptomycin) which media were then inoculated with dorsal root nerve ganglions excised from E7 (Embryonic day 7) chick embryo and were cultured for 16 to 20 hours under 5% CO2 and at 37° C. Subsequently, the object compounds were added to media at various concentrations and 2 units/ml of mouse semaphorin 3A (Sema3A) was added after cultivating for 1 hour. The cultures were further incubated for another 1 hour. Glutaraldehyde was quickly added therein after said 1 hour to make the final concentration 1%. The cultures were then left for 15 minutes at room temperature so that the tissue sections were fixed, and collapse rates of the growth cones were microscopically observed. A well with no addition of Sema3A was made the control.
The longitudinal and lateral axes in the figures represent the collapse rate of growth cones and the concentration of compounds, respectively. ●▪▴ show the results when Sema3A was added after the addition of the compounds and ◯[…]Δ show those when Sema3A was not added. Further, IC50 (μg/ml) of the inhibitors were determined by the method comprising: calculating the collapse rate of growth cone (A) % of the negative controls (neither compounds nor Sema3a was added); subsequently calculate the collapse rate of growth cone (B) % of the positive controls (compounds were not added but Sema3a was added); and the concentration was chosen for each compound from the chart where the collapse rate of growth cone met (A+B)/2(%), which was made IC50 level. The followings are the results.

Sema3A = molecular target: T2, Sema3A (Mus musculus, UniProt O08665); experiment: Collagen gel co-culture: suppression of neurite outgrowth inhibitory action of Sema3A; type: cell-based; set-up: key to suppression of neurite outgrowth inhibitory activity of Sema3A, score / inhibition of neurite outgrowth-inhibitory action of Sema3A, score: neurites outgrew in a complete concentric circular shape just like for the control groups where Sema3A-non-expressing COS7 cells were used, it was scored +++ (a strong inhibitory effect for Sema3A); outgrowth was found almost in a concentric circular shape accompanied with a little suppression of the outgrowth toward the direction of Sema3A-expressing COS cells, it was scored ++; outgrowth toward the direction of Sema3A-expressing COS cells is fairly suppressed to present a crescent shape, it was scored +; outgrowth toward the direction of Sema3A-expressing COS cells was not found at all (no inhibitory effect for Sema3A), it was scored −; conditions: for suppression of neurite outgrowth inhibitory activity of Sema3A, score: Example 5; for inhibition of neurite outgrowth-inhibitory action of Sema3A, score: 2 μg/ml compound, Example 16; for persistent inhibitory action to Sema3A (neurite outgrowth toward Sema3A-expressing COS7 cell clump): collagen gel co-culture, 2 days
T2 construct: expressed in transfected cells; host or cells: COS7
T2 sequence (O08665 21-772): T1 sequence (O08665 21-772)
Method: Whether the object compounds (SPF-3059-1, M162, A721) have persistent inhibitory action to Sema3A was analyzed by the collagen gel co-culture method (Neuroprotocols 4, 116, 1994) using Sema3A-expressing COS7 cell clumps and 7- or 8-day-old chick embryo dorsal root ganglions. The Sema3A-expressing COS7 cell clumps were generated as follows. 1 μg of Sema3A-expression plasmid was introduced into COS7 cells (100000 cells/35 mm culture plate), which were cultured overnight, with the FuGENE6 transfection reagent (Roche). 2.5 hours after the starting of the transfection, the COS7 cells were collected by trypsinization and centrifugation, and re-suspended in a medium of 200 μl. 20 μl of the cell suspension was placed on the lid of the culture plate (inside) and the lid was turned over, and then the suspension was cultivated for 20 hours (hanging drop culture) (Cell 78, 425, 1994). When the culture was over, aggregated COS7 cells (clump) were collected and trimmed to a diameter of 0.5 mm. The Sema3A-expressing COS7 cell clump and the above-mentioned dorsal root ganglions were placed in parallel at a distance of 0.5 to 1 mm in a 0.2% collagen gel which was then cultivated in a medium containing the aforementioned compounds at various concentrations for 2 days at 37° C. under 5% CO2. Glutaraldehyde was quickly added therein to make the final concentration 1%. The cultures were then left for 1 hour at room temperature so that the tissues were fixed, and the neurite outgrowth was microscopically observed. The results are found in FIG. 4.
When a medium not containing a subject compound was used, neurites were unable to grow towards the COS7 cell clump with the high concentration of Sema3A and grew only to the opposite direction.
In a similar way as in Example 4, suppression of the neurite outgrowth inhibitory activity was analyzed for the compounds, SPF-3059-1, SPF-3059-2 and SPF-3059-5. When the neurites outgrew in a complete concentric circular shape just like for the control groups where Sema3A-non-expressing COS7 cells were used, it was scored +++ (a strong inhibitory effect for Sema3A). When the outgrowth was found almost in a concentric circular shape accompanied with a little suppression of the outgrowth toward the direction of Sema3A-expressing COS cells, it was scored ++. […] When the outgrowth toward the direction of Sema3A-expressing COS cells was not found at all (no inhibitory effect for Sema3A), it was scored −.

COS7 cells = experiment: Effect on cell proliferation (MTT); type: cell-based; conditions: Chlorocebus aethiops, COS-7, 48 h, two days, read-out: IC50, inhibitory rate for cell proliferation
Method: COS7 cells were seeded onto a 96-well plate (medium 100 μl/well) at 10000 cells per well. At the same time, SPF-3059-1 of various concentrations was added and the cells were cultivated for two days in the presence of 5% CO2 at 37° C. Each well was then added with 10 μl of MTT solution at 5 mg/ml and cultured for another one hour. Subsequently, the culture supernatant was removed and formazan (an MTT derivative produced in viable cells) accumulated in the cells was dissolved by the addition of 50 μl DMSO and then the absorbance at 570 nm was measured to determine the proliferation of COS7 cells. […] The longitudinal and lateral axes in the figure show cell proliferation and the SPF-3059-1 concentration, respectively. Besides, the standard deviation (n=4) was added to each column.
The same effect on cell proliferation as in Example 9 was examined for the compounds, SPF-3059-1, SPF-3059-2 and SPF-3059-5. The wells with these compounds were served as samples, the wells with PBS were served as control, and the wells for which the experiment was carried out without adding the cells was served as blank. IC50 (μg/ml), the inhibitory rate for cell proliferation, was determined, which is calculated by the equation shown below. The inhibitory rate for cell proliferation (%)=(1−(absorbance of a sample well−absorbance of the blank well)/(absorbance of the control well−absorbance of the blank well))×100

Solubility = type: physicochemical

Structure (SMILES)	suppression of neurite outgrowth inhibitory activity of Sema3A, score (Sema3A; 0.5 μg/ml compound)	suppression of neurite outgrowth inhibitory activity of Sema3A, score (Sema3A; 1.0 μg/ml compound)	suppression of neurite outgrowth inhibitory activity of Sema3A, score (Sema3A; 2.0 μg/ml compound)	inhibition of neurite outgrowth-inhibitory action of Sema3A, score (Sema3A)	IC50 [1]	Solubility (Solubility; methanol, DMSO)	Solubility (Solubility; water, hexane)	inhibition of growth cone collapse activity of Sema3A (in words) [1]	persistent inhibitory action to Sema3A (neurite outgrowth toward Sema3A-expressing COS7 cell clump) (Sema3A)	IC50 (COS7 cells)
CC(=O)c1cc2c(=O)c3c(C(=O)O)c(O)c(O)cc3oc2c(C(C)=O)c1-c1coc2cc(O)c(O)c(C(=O)O)c2c1=O [SPF-3059-5]	+	++	++	++	< 0.173 µM	–	–	inhibit the growth cone collapse activities of Sema3A in a concentration-dependent manner; also recorded: potently inhibit semaphorin	persistently inhibited the action of Sema3A	> 300 µg/mL
CC(=O)c1cc2c(=O)c3c(C(=O)O)cc(O)cc3oc2c(C(C)=O)c1-c1coc2cc(O)c(O)cc2c1=O [SPF-3059-25]	–	–	–	–	7.75 µM	Soluble	Insoluble	–	–	–
CC(=O)c1cc2c(=O)c3cc(O)c(O)cc3oc2c(C(C)=O)c1-c1coc2cc(O)c(O)cc2c1=O [SPF-3059-26]	–	–	–	–	0.409 µM	Soluble	Insoluble	–	–	–
CC(=O)c1cc(-c2c(C(C)=O)cc3c(=O)c4c(C(=O)O)c(O)c(O)cc4oc3c2C(C)=O)cc(C(=O)c2cc(O)c(O)cc2O)c1O [SPF-3059-27]	–	–	–	–	0.778 µM	Soluble	Insoluble	–	–	–
CC(=O)c1c(C)c(C(=O)C2COc3cc(O)c(O)cc3C2=O)cc2c(=O)c3cc(O)c(O)cc3oc12 (stereo not shown) [SPF-3059-30]	–	–	–	–	0.408 µM	Soluble	Insoluble	–	–	> 100 µg/mL
CC(=O)c1cc(-c2c(C(C)=O)cc3c(=O)c4cc(O)c(O)cc4oc3c2C(C)=O)cc(C(=O)c2cc(O)c(O)cc2O)c1O [SPF-3059-36]	–	–	–	–	6.68 µM	Soluble	Insoluble	–	–	–
CC(=O)c1c(C)c(-c2oc3cc(O)c(O)c(C(=O)O)c3c(=O)c2Cc2c(C)oc3c(c2=O)COc2cc(O)c(O)cc2-3)cc2c(=O)c3c(C(=O)O)c(O)c(O)cc3oc12 [SPF-3059-37]	–	–	–	–	< 0.124 µM	Soluble	Insoluble	–	–	–

More lines, main results first:

suppression of neurite outgrowth inhibitory activity of Sema3A, score (Sema3A; 0.5 μg/ml compound)	suppression of neurite outgrowth inhibitory activity of Sema3A, score (Sema3A; 1.0 μg/ml compound)	suppression of neurite outgrowth inhibitory activity of Sema3A, score (Sema3A; 2.0 μg/ml compound)	inhibition of neurite outgrowth-inhibitory action of Sema3A, score (Sema3A)	IC50 [1]	Solubility (Solubility; methanol, DMSO)	Solubility (Solubility; water, hexane)	Structure (SMILES)	inhibition of growth cone collapse activity of Sema3A (in words) [1]	persistent inhibitory action to Sema3A (neurite outgrowth toward Sema3A-expressing COS7 cell clump) (Sema3A)	IC50 (COS7 cells)
+	++	+++	+++	–	–	–	CC(=O)c1cc2c(=O)c3cc(O)c(O)cc3oc2c(C(C)=O)c1-c1coc2cc(O)c(O)c(C(=O)O)c2c1=O [SPF-3059-2]	inhibit the growth cone collapse activities of Sema3A in a concentration-dependent manner; also recorded: potently inhibit semaphorin	persistently inhibited the action of Sema3A	> 100 µg/mL
–	–	–	–	0.187 µM	Soluble	Insoluble	CC(=O)c1c(C)c(C(=O)C2COc3cc(O)c(O)cc3C2=O)cc2c(=O)c3c(C(=O)O)c(O)c(O)cc3oc12 (stereo not shown) [SPF-3059-9]	–	–	> 100 µg/mL
–	–	–	–	0.188 µM	Soluble	Insoluble	CC(=O)c1cc2c(=O)c3c(C(=O)O)c(O)c(O)cc3oc2c(C(C)=O)c1-c1coc2cc(O)c(O)cc2c1=O [SPF-3059-24]	–	–	> 100 µg/mL
–	–	–	–	3.76 µM	Soluble	Insoluble	CC(=O)c1c(C)c(-c2cc(=O)c3c(C(=O)O)cc(O)cc3o2)cc2c(=O)c3c(C(=O)O)c(O)c(O)cc3oc12 [SPF-3059-28]	–	–	–
–	–	–	–	0.182 µM	Soluble	Insoluble	COCc1c(-c2cc3c(=O)c4cc(O)c(O)cc4oc3c(C(C)=O)c2C)oc2cc(O)c(O)c(C(=O)O)c2c1=O [SPF-3059-29]	–	–	> 100 µg/mL
–	–	–	–	0.182 µM	Soluble	Insoluble	CC(=O)c1c(C)c(C(=O)C2(O)COc3cc(O)c(O)cc3C2=O)cc2c(=O)c3c(C(=O)O)c(O)c(O)cc3oc12 (stereo not shown) [SPF-3059-34]	–	–	–
–	–	–	–	3.66 µM	Soluble	Insoluble	COC(=O)c1cc(O)cc2oc(-c3cc4c(=O)c5c(C(=O)O)c(O)c(O)cc5oc4c(C(C)=O)c3C)cc(=O)c12 [SPF-3059-35]	–	–	–
–	–	–	–	0.182 µM	Soluble	Insoluble	CC(=O)c1c(C)c(-c2cc(=O)c3c(C(=O)O)c(O)c(O)cc3o2)cc2c(=O)c3c(C(=O)O)c(O)c(O)cc3oc12 [SPF-3059-39]	–	–	–
